From patent publication US20040214809A1, “Stabilized silver-ion sulfite complex compositions and methods” (BioInterface Technologies, Inc., priority 2003, published 2004)

Legend:
S. aureus (ATCC 29213) = experiment: Filter disc zone of inhibition on tryptic soy agar; assay type: cell-based; conditions: 7 mm filter disc soaked with solution (equivalent of 1% silver nitrate), 37° C. overnight, measured from disc edge, average of two trials
Procedure: (§1) Additionally, a non-stabilized silver thiosulfate complex made according to Example 5. […] Filter paper discs (7 mm diameter) were soaked with either a stabilized silver thiosulfate solution or a non-stabilized silver thiosulfate solution. The antimicrobial studies were performed by first plating S. aureus (ATCC 29213) or E. coli (ATCC 225922) on tryptic soy agar. A disc containing the stabilized thiosulfate solution or the control solution was placed one each of these microbial lawns. […] The culture plates were incubated at 37° C. overnight. The zone of microbial growth inhibition (ZOI) was measured (in millimeters) from the edge of each filter disc and the results from two trials were averaged. The larger the measured ZOI, the greater the antimicrobial effect.

E. coli (ATCC 225922) = experiment: Filter disc zone of inhibition on tryptic soy agar; assay type: cell-based; conditions: 7 mm filter disc soaked with solution (equivalent of 1% silver nitrate), 37° C. overnight, measured from disc edge, average of two trials
Procedure: as §1

## silver nitrate [Silver Nitrate Solution]
S. aureus (ATCC 29213)
  S. aureus Zone Of Inhibition: 1.5 millimeters
E. coli (ATCC 225922)
  E. coli Zone Of Inhibition: 1.0 millimeters
